Data reported in patent US4022606A, “Antimicrobial use of ω-aminocarboxylic acid amides” (Henkel & Cie G.m.b.H., priority 1973, dated 1977).
Converted amounts (≈) assume the structure as drawn.

Tests used:
Format in all cases: cell-based
[1] = tested on: Staphylococcus aureus; assay: Minimum inhibitory concentration, dilution test, germ 1; conditions: 72 h, 5 × 10^7 organisms/ml, 3 days at 37° C.
Experimental: (§1) In order to measure the antimicrobial efficacy of the above-named ω-aminocarboxylic acid amides, their inhibitory effect upon the subsequently listed bacteria and fungi, as well as upon the germs in contaminated process water was determined.
(§2) 1) Staphylococcus aureus
(§3) The minimum inhibitory concentrations of the products to be tested were determined by means of the dilution test according to the standards for the examination of chemical disinfectants which had been published in 1959 by the Deutsche Gesellschaft fur Hygiene und Mikrobiologie (German Association for Hygiene and Microbiology). The tests were carried out in test tubes which were filled with Standard-I-Broth (Merck) or with beer wort (8° Be) and diluted 1:5 with tap water. After the addition of the active substances, the volume of the nutrient solution in the test tubes was adjusted to 10 ml. Next, the test tubes were inoculated with 0.1 ml test organism suspension. In the case of bacteria, the inoculated test tubes were incubated in the incubator for 3 days at 37° C. and in the case of fungi, they incubated for 6 days at 30° C. Subsequently, the concentration of the compound added to the nutrient medium which was just able to inhibit completely the growth of the germs was determined. The value thus determined was designated as the minimum inhibitory concentration (m.i.c.). The following concentration intervals were used for the tests: 1,000 ppm, 750 ppm, 500 ppm, 250 ppm, 100 ppm, 50 ppm, 25 ppm, 10 ppm, 7.5 ppm, 5 ppm, 2.5 ppm, and 1 ppm.
(§4) The inhibitory concentrations of the individual products for the above-quoted germs which were determined in this dilution test are listed in the following Table III.

[2] = tested on: Pseudomonas aeruginosa; assay: Minimum inhibitory concentration, dilution test, germ 3; conditions: 72 h, 4 × 10^7 organism/ml, 3 days at 37° C.
Experimental: as §1
(§5) 3) Pseudomonas aeruginosa
as §3, §4

[3] = tested on: Candida albicans; assay: Minimum inhibitory concentration, dilution test, germ 4; conditions: 144 h, 2 × 10^6 organisms/ml, 6 days at 30° C.
Experimental: as §1
4) Candida albicans 2 × 10^6 organisms/ml
as §3, §4

[4] = tested on: Escherichia coli; assay: Minimum inhibitory concentration, dilution test, germ 2; conditions: 72 h, 4 × 10^7 organisms/ml, 3 days at 37° C.
Experimental: as §1
(§6) 2) Escherichia coli 4 × 10^7 organisms/ml
as §3, §4

[5] = tested on: Staphylococcus aureus; assay: Microbicidal effect, suspension test, germ 1; conditions: 18° C. to 21° C.
Experimental: (§7) The microbicidal effect of some products named above was determined by means of the suspension test. The methodology of this testing procedure has been taken from the standards for the testing of chemical disinfectants, published in 1959 by the German Association for Hygiene and Microbiology. In conformity with these standards, 0.1 ml of a test organism suspension of the following enumerated bacteria or fungi was pipetted into test tubes at 18° C. to 21° C.
as §2
(§8) The products of the invention to be tested were dissolved in tap water of 16° dH (German degrees of hardness). Then, 10 ml of the respective dilution quantity of the product to be tested were added to each test tube. The concentrations of the products according to the invention were 100 ppm, 250 ppm and 500 ppm in each case. After a duration of action amounting to 1, 2.5, 5, 10, 20, 30 and 60 minutes, a loop of material was taken from each test tube and inoculated in 10 ml of nutrient solution which contained 3% Tween and 0.3% Lecithin as de-inhibitors. The nutrient solutions inoculated with bacteria were incubated at 37° C. whereas the nutrient solutions inoculated with fungi were incubated at 30° C. After 6 days, the growth of the cultures was macroscopically evaluated.

[6] = tested on: Pseudomonas aeruginosa; assay: Microbicidal effect, suspension test, germ 3; conditions: 18° C. to 21° C.
Experimental: as §7, §5, §8

[7] = tested on: Mixture of contaminated water from 3 cooling towers; assay: Minimum inhibitory concentration, dilution test, germ 6
Experimental: as §1
6) Mixture of contaminated water
as §3, §4

[8] = tested on: Escherichia coli; assay: Microbicidal effect, suspension test, germ 2; conditions: 18° C. to 21° C.
Experimental: as §7, §6, §8

[9] = tested on: Aspergillus niger; assay: Minimum inhibitory concentration, dilution test, germ 5; conditions: 144 h, 9 × 10^5 organisms/ml, 6 days at 30° C.
Experimental: as §1
5) Aspergillus niger 9 × 10^5 organisms/ml
as §3, §4

[10] = tested on: Mixture of contaminated water from 3 scrubbers of air conditioning installations; assay: Minimum inhibitory concentration, dilution test, germ 7
Experimental: as §1
7) Mixture of contaminated water
from 3 scrubbers of air con-
ditioning installations
as §3, §4

[11] = tested on: mixed suspension of Scenedesmus obliquus and Chlorella vulgaris; assay: Efficacy in inhibiting growth of algae; conditions: 168 h; after 7 days, pH 7.2; read-out: Minimum Inhibitory Concentration, growth of algae
Experimental: The efficacy in inhibiting growth of algae was determined in cylindrical vessels under intensive aeration. Into the vessels, there were introduced 100 ml of a nutrient solution to which increasing quantities of active substances had been added as well as 4 ml of a mixed suspension of Scenedesmus obliquus and Chlorella vulgaris.
The nutrition solution has the following composition:
These compounds were dissolved in 1000 ml of distilled water. The pH value of the nutrient solution was 7.2. The tests were carried out with the following concentration intervals of the active substance: 10 ppm, 5 ppm, 2.5 ppm, 2 ppm, 1.5 ppm, 1 ppm, 0.75 ppm, 0.5 ppm, and 0.25 ppm.

[12] = tested on: Desulfovibrio desulfuricans; assay: Inhibition of the growth of sulfate-reducing bacteria; conditions: 672 h, 6× 10^5 organisms/ml, 37° C., 4 weeks, pH 7.4, read-out: Inhibitory Concentration, growth of Desulfovibrio Desulfuricans
Experimental: The minimum inhibitory concentrations were determined in 50 ml screw-top bottles. The bottles were charged with an optimum nutrient solution for the growth of sulfate-reducing bacteria of the following composition:
which compounds were dissolved in 1000 ml of distilled water. The pH value of the nutrient solution was 7.4.
After various concentrations of the products to be tested had been added, 1 ml of a pure culture of Desulfovibrio desulfuricans 6× 10^5 organisms/ml was used for inoculation, followed by incubation at 37° C. for 4 weeks. The following concentration intervals were used for the tests: 100 ppm, 50 ppm, 40 ppm, 30 ppm, 20 ppm, 10 ppm, 5 ppm, 2.5 ppm, and 1 ppm.
In this test, the minimum inhibitory concentrations listed in the following Table VI were determined for the individual products.

Row | MIC [1] [µg/mL] | MIC [2] [µg/mL] | MIC [3] [µg/mL] | MIC [4] [µg/mL] | MIC [7] [µg/mL] | MIC [9] [µg/mL] | MIC [10] [µg/mL] | MIC [12] [µg/mL] | Structure (SMILES) | Sterilization Time ([5]; 100 ppm in tap water) [min] | Sterilization Time ([5]; 250 ppm in tap water) [min] | Sterilization Time ([5]; 500 ppm in tap water) [min] | Sterilization Time ([6]; 100 ppm in tap water) [min] | Sterilization Time ([6]; 250 ppm in tap water) [min] | Sterilization Time ([6]; 500 ppm in tap water) [min] | Sterilization Time ([8]; 100 ppm in tap water) [min] | Sterilization Time ([8]; 250 ppm in tap water) [min] | Sterilization Time ([8]; 500 ppm in tap water) [min] | MIC [11] [µg/mL]
1 | 50 | 500 | 50 | 100 | 25 | 100 | 25 |  | CCCCCCCCCCCCNC(=O)CN.Cl [Product A, N-glycyl-dodecylamine hydrochloride] | 10 | 5 | 5 | 60 | 20 | 10 | 20 | 10 | 10 | 
2 | 5 (≈ 15.3 µM) | 250 (≈ 766 µM) | 50 (≈ 153 µM) | 5 (≈ 15.3 µM) | 7.5 (≈ 23 µM) | 100 (≈ 306 µM) | 7.5 (≈ 23 µM) |  | CCCCCCCCCCCCCCNC(=O)CCCCCN [Product F] |  |  |  |  |  |  |  |  |  | 
3 | 5 (≈ 16.7 µM) | 100 (≈ 335 µM) | 50 (≈ 167 µM) | 5 (≈ 16.7 µM) | 5 (≈ 16.7 µM) | 50 (≈ 167 µM) | 5 (≈ 16.7 µM) |  | CCCCCCCCCCCCNC(=O)CCCCCN [Product D, 6-aminocapronic acid-dodecylamide] |  |  |  |  |  |  |  |  |  | 
4 | 25 (≈ 76.6 µM) | 1000 (≈ 3060 µM) | 100 (≈ 306 µM) | 25 (≈ 76.6 µM) | 10 (≈ 30.6 µM) | 250 (≈ 766 µM) | 10 (≈ 30.6 µM) | 2.5 (≈ 7.66 µM) | CCCCCCCCCCCCNC(=O)CCCCCN(C)C [Product C, 6-(N,N-dimethylamino)capronic acid-dodecylamide] | 5 | 2.5 | 2.5 | 30 | 10 | 5 | 10 | 5 | 5 | 0.75 (≈ 2.3 µM)
5 | 50 (≈ 219 µM) | 100 (≈ 438 µM) | 100 (≈ 438 µM) | 50 (≈ 219 µM) | 25 (≈ 109 µM) | 100 (≈ 438 µM) | 25 (≈ 109 µM) | 5 (≈ 21.9 µM) | CCCCCCCCCCNC(=O)CCN [Product B, 3-aminopropionic acid-decylamide] | 5 | 5 | 5 | 30 | 10 | 10 | 10 | 10 | 10 | 1 (≈ 4.38 µM)
6 | 50 (≈ 121 µM) | 250 (≈ 607 µM) | 250 (≈ 607 µM) | 50 (≈ 121 µM) | 25 (≈ 60.7 µM) | 250 (≈ 607 µM) | 25 (≈ 60.7 µM) |  | CCCCCCCCCCCCNC(=O)CCCCCNC(=O)CCCCCN [Product E] |  |  |  |  |  |  |  |  |  | 
